# Laboratory results reported in PubChem BioAssay (NCI).
#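 Method: 48-hour compound exposure of cells in 96-well plates, five concentrations, linear interpolation of endpoints. Here, GI50 denotes the concentration required for 50% inhibition of growth. TGI: total growth inhibition.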
# Experiments:
# Experiment in all cases: growth of human tumour cells (NCI), 48 h
# BT-549 breast = test system: BT-549 breast
# CCRF-CEM leukemia = test system: CCRF-CEM leukemia
# MALME-3M melanoma = test system: MALME-3M melanoma
# MDA-MB-435 = test system: MDA-MB-435
# PC-3 prostate = test system: PC-3 prostate
# SF-539 CNS = test system: SF-539 CNS
# SR leukemia = test system: SR leukemia
# HOP-92 NSCLC = test system: HOP-92 NSCLC
# MCF7 breast = test system: MCF7 breast
# NCI-H522 lung = test system: NCI-H522 lung
Structure (SMILES),TGI (BT-549 breast),TGI (CCRF-CEM leukemia),TGI (MALME-3M melanoma),TGI (MDA-MB-435),TGI (PC-3 prostate),TGI (SF-539 CNS),TGI (SR leukemia),TGI (HOP-92 NSCLC),TGI (MCF7 breast),TGI (NCI-H522 lung),GI50 (CCRF-CEM leukemia),GI50 (HOP-92 NSCLC),GI50 (MALME-3M melanoma),GI50 (MCF7 breast),GI50 (NCI-H522 lung),GI50 (SF-539 CNS),GI50 (BT-549 breast),GI50 (MDA-MB-435),GI50 (PC-3 prostate),GI50 (SR leukemia)
N#Cc1c(NC(=S)NC(=O)c2ccccc2)nc2c(c1-c1ccccc1)CCC2,> 100 µM,> 100 µM,> 100 µM,> 100 µM,> 100 µM,> 100 µM,> 100 µM,–,–,–,–,–,–,–,–,–,–,–,–,–
CSC1=Nc2ccccc2N(C)c2c1c(-c1ccccc1)nn2C,> 100 µM,53.1 µM,–,> 100 µM,> 100 µM,> 100 µM,95 µM,> 100 µM,> 100 µM,> 100 µM,–,–,–,–,–,–,–,–,–,–
O=C1CC(=O)N(c2ccccc2)N1/C(=C/c1ccccc1)c1ccccc1,50.2 µM,3.57 µM,–,36.5 µM,47.7 µM,–,40.9 µM,31.3 µM,57.3 µM,–,–,–,–,–,–,–,–,–,–,–
COC1OC(=O)[C@H]2O[N+]([O-])=C(C)[C@@H]12 (stereo not given in full),–,> 100 µM,> 100 µM,–,–,> 100 µM,–,> 100 µM,> 100 µM,> 100 µM,–,–,–,–,–,–,–,–,–,–
CCn1cc(C(c2ccc(Cl)cc2)n2ccnc2)c2cc(Br)ccc21 (stereo not given),31.9 µM,–,32.7 µM,27 µM,22.8 µM,41.3 µM,36.8 µM,19.4 µM,29.8 µM,–,–,–,–,–,–,–,–,–,–,–
O=[Se]([O-])c1ccccc1.O=[Se]([O-])c1ccccc1.[OH3+].[OH3+].[Pt+2],–,> 35.9 µM,54.2 µM,–,–,44.2 µM,–,40.7 µM,37.2 µM,13.4 µM,3.15 µM,14400 nM,16.5 µM,6.42 µM,2510 nM,10600 nM,–,–,–,–
Nc1n[nH]c(=O)[nH]1,–,> 100 µM,> 100 µM,–,–,> 100 µM,–,> 100 µM,> 100 µM,> 100 µM,–,–,–,–,–,–,–,–,–,–
Cc1[nH]c(/C=C2\C(=O)Nc3ccc(S(=O)(=O)Cc4c(Cl)cccc4Cl)cc32)c(C)c1C(=O)N1CCC[C@@H]1CN1CCCC1,83.1 µM,–,–,2.2 µM,> 21.5 µM,2.89 µM,–,> 44 µM,3.64 µM,47.7 µM,–,2090 nM,–,1.69 µM,19700 nM,1510 nM,14.1 µM,865 nM,1730 nM,–
C=CC(=O)Nc1cccc(-c2nc(SC)nc(Nc3ccccc3OC)c2C#N)c1,38.5 µM,> 100 µM,3.44 µM,4.48 µM,4.9 µM,4.53 µM,4.19 µM,4.28 µM,–,6.53 µM,3.07 µM,1700 nM,1.54 µM,–,2040 nM,1930 nM,3.19 µM,1930 nM,1940 nM,1490 nM
O=C(Nc1ccc(I)cc1C(=O)NCCO)c1cccs1,> 100 µM,> 100 µM,–,> 100 µM,> 100 µM,> 100 µM,> 100 µM,–,> 100 µM,> 100 µM,–,–,–,–,–,–,–,–,–,–
